According to US20220257665A1, “APPLICATION OF […] AGENTS TO STEM CELL DERIVED CARDIOMYOCYTES AND USES THEREOF” (priority 2019, published 2022):

Legend:
[1] = system: human induced pluripotent stem cell derived cardiomyocytes (iCell2 cardiomyocytes); assay: Ca2+-recordings, beat-to-beat variability (CV), single agents; format: cell-based; details: 24 h after withdrawal
From the text: In order to determine the lasting impact on the electrophysiological properties of the stem-cell derived cardiomyocytes following exposure to anti-arrhythmic agents, we conducted functional cardiomyocyte testing by means of Ca^2+-recordings and determined the arrhythmogenic potential of the stem-cell derived cardiomyocyte population after exposure to the anti-arrhythmic agents. […] (Kazuto Yamazaki et al, Beat-to-Beat Variability in Field Potential Duration in Human Embryonic Stem Cell-Derived Cardiomyocyte Clusters for Assessment of_Arrhythmogenic Risk, and a Case Study of Its Application, Pharmacology & Pharmacy, Vol. 5 No. 1, 2014, pp. 117-128). Of note, all Ca^2+-recordings were conducted at least 24 h after exposure to exclude the known direct effects of the agents via ion channel modulation. […] The cells were delivered as frozen vials and stored until use in liquid nitrogen. All culturing media necessary for thawing and culturing was supplied by the cell supplier. Thawing, plating and cultivation procedures were followed according to the protocol supplied by the manufacturer. Cells were plated directly onto the 384-well Greiner μClear plates coated with fibronectin. […] Media was changed (90%) one day after plating and then every second day and 3 hours before the experiments for the pilot study. […] Treatment was ended by exchanging medium to standard cultivation medium on DIV 6. Recording took place at DIV 7. Experiments were performed at a minimum of n=10 for each compound concentration. For Ca^2+ imaging experiments media was exchanged for the recordings by a HEPES buffered recording solution. A fluorescent Ca^2+ indicator (Cal-520-AM) was applied at a concentration of 2 μM and allowed to accumulate in the cells for 30 min before the buffer was exchanged again to dye-free buffer. Cells were allowed to recover for 10 min at 37° C. in the Hamamatsu FDSS recording system. All experiments were performed at 37° C. The framerate of the camera was set to a minimum of 35 Hz for recording and a binning of 4×4. To assess if the quality was sufficient for the experiments several parameters were reviewed (by-eye inspection), including regularity of the beating, shape and amplitude of the Ca^2+ signals and variability of these parameters between the different wells. Since the cells were spontaneously active, no electrical stimulation was applied. Cells were recorded for 5 min prior to compound application. 200 μM Moxifloxacin was applied after the baseline phase in a single-concentration-per-well fashion, followed by a wash-in phase of 5 min. Fluorescent activity was then recorded for additional 5 min. Moxifloxacin without compound preincubation was included as control (n=18), distributed over multiple plates. […] Coefficient of variation was calculated as where σ denotes the standard deviation and p represents the mean.

NPPA [2] = assay: Nanostring gene expression, hESC-derived cardiomyocytes in monolayer: NPPA; format: cell-based, human
Method: (§3) Blank medium, addition of solvents as well as cardiomyocytes cultured for 9 days and day 42 were used as control. Beating of cells was assessed after 48 h, 72 h and 96 h. Cells were harvested following incubation for 10 minutes in RLTplus buffer (Qiagen). Changes in gene expression were determined using a custom nanostring gene panel (NanoString Technologies) according to manufacturer's instruction for the following target sequences including 7 housekeeping genes listed in Table 1.
(§4) To study the direct impact of antiarrhythmic drugs on the properties of hESC-derived cardiomyocytes, changes in expression level of selected genes were analyzed that are associated with action potential formation (HCN1, HCN4, KCNA5, KCNE4, KCNH7, KCNJ3, KCNJ5, SCN1B, SCN5A), electrical signal propagation (GJA1, GJA5, GJD3), calcium handling (CACNA1C, CACNA1D, CACNA1G, RYR2, PLN), cardiac maturation (HOPX, MYH7, MYL2, TNN13) and cardiac hypertrophy (NPPA, NPPB) as well as pan-cardiomyocyte markers (NKX2-5, TNNT2, ACTA2).

NKX2-5 = assay: Nanostring gene expression, hESC-derived cardiomyocytes in monolayer: NKX2-5; format: cell-based, human
Method: as §3, §4

TNNT2 = assay: Nanostring gene expression, hESC-derived cardiomyocytes in monolayer: TNNT2; format: cell-based, human
Method: as §3, §4

[3] = cited from earlier work
NPPA [4] = assay: Gene expression in 3D suspension aggregates 48 h after removal of the agent: NPPA; format: cell-based, human; details: 10 μM for about 120 h, measured 48 h after treatment, 3D aggregates
Method: (§1) In order to verify the lasting effect and the robustness across different culture systems, we tested the effect of the antiarrhythmic agents on the gene expression profile of the stem-cell derived cardiomyocytes using 3D suspension aggregates and measured the gene expression 48 h after removal of the anti-arrhythmic agents.
(§2) The aggregates were subsequently maintained in 6-well suspension plates on an orbital shaker (75 rpm) at a cell density of about 1.5×10^6 cells/ml in 3 mL medium.

ACTA2 = assay: Nanostring gene expression, hESC-derived cardiomyocytes in monolayer: ACTA2; format: cell-based, human; details: 5 days exposure to 0.1 μM and 1 μM amiodarone (FIG. 7)
Method: as §3, §4

[5] = system: hESC-derived cardiomyocytes; assay: Beating of hESC-derived cardiomyocytes after exposure to antiarrhythmic drugs; format: cell-based, human
Method: Dissociated cardiomyocytes were seeded in RPMI1640 medium supplemented with 2% B27 and 0.1% Pen/Strep (Gibco) on laminin-521 or geltrex (Life Technologies)-coated plates at a cell density of 1×10^5/cm^2. […] Blank medium, addition of solvents as well as cardiomyocytes cultured for 9 days and day 42 were used as control. Beating of cells was assessed after 48 h, 72 h and 96 h.

GJA5 [6] = assay: Gene expression in 3D suspension aggregates 48 h after removal of the agent: GJA5; format: cell-based, human; details: 10 μM for about 120 h, measured 48 h after treatment, 3D aggregates
Method: as §1, §2

GJA5 [7] = assay: Nanostring gene expression, hESC-derived cardiomyocytes in monolayer: GJA5; format: cell-based, human; details: 0.1 μM and 1 μM, 5 days exposure
Method: as §3, §4

[8] = 100 nM, proarrhythmic conditions (moxifloxacine)
[9] = 10 nM, proarrhythmic conditions (moxifloxacine)

Compound | reduction of CV (beat-to-beat variability) compared to control ([1]; 100 nM, baseline conditions) [%] | reduction of CV (beat-to-beat variability) compared to control [1, 8] [%] | typical plasma concentrations in vivo [3] [µg/mL] | reduction of CV (beat-to-beat variability) compared to control ([1]; 10 nM, baseline conditions) [%] | reduction of CV (beat-to-beat variability) compared to control [1, 9] [%] | other results
CCN(CC)CC(=O)Nc1c(C)cccc1C [Lidocaine, lidocaine] | 80.8 | 84.7 |  |  |  | NPPA expression (NPPA [2]; 1 μM, 10 μM and 100 μM lidocaine, 5 days, concentration dependent (FIG. 9)): decreased; expression of NKX2-5 (NKX2-5; 1 μM, 10 μM and 100 μM lidocaine, 5 days (FIG. 11)): without effecting the expression; expression of TNNT2 (TNNT2; 1 μM, 10 μM and 100 μM lidocaine, 5 days (FIG. 12)): without effecting the expression
Cc1cccc(C)c1OCC(C)N (stereo not drawn) [Mexiletine, mexiletine] | 76.79 | 77.5 | 0.6 to 1.7 |  |  | 
CC(C)NCC(O)c1ccc(NS(C)(=O)=O)cc1 (stereo not drawn) [Sotalol, sotalol] | 79.4 | 84.9 | 1 to 3 |  |  | 
CCCCc1oc2ccccc2c1C(=O)c1cc(I)c(OCCN(CC)CC)c(I)c1 [amiodarone] |  |  |  | 76.5 | 83.3 | reduction in NPPA expression (NPPA [2]; amiodarone treatment, 5 days exposure to 0.1 μM and 1 μM (FIG. 3)): about 3 fold; decrease in NPPA (NPPA [4]): about 2 fold; changes of the expression of ACTA2 (ACTA2): did not result in changes; changes of the expression of NKX2-5 (NKX2-5; 5 days exposure to 0.1 μM and 1 μM amiodarone (FIG. 5)): did not result in changes; changes of the expression of TNNT2 (TNNT2; 5 days exposure to 0.1 μM and 1 μM amiodarone (FIG. 6)): did not result in changes; beating frequency ([5]; 1 μM): clearly reduced; beating frequency ([5]; 10 μM): abrogated; increase in GJA5 (GJA5 [6]): about 2.7 fold; upregulation of GJA5 (GJA5 [7]): > 3 fold
COCCc1ccc(OCC(O)CNC(C)C)cc1 (stereo not drawn) [metoprolol] |  |  |  | 79.2 | 83.2 | 
CC(C)NCC(O)COc1cccc2ccccc12 (stereo not drawn) [propranolol] | 73.7 | 88.5 | 0.0021 to 0.3 |  |  | 
